The values that follow come from patent US11655268B2, “Nucleoside or nucleotide derivatives, and uses thereof” (ST Pharm Co., Ltd., priority 2018, dated 2023).

Like-named read-outs stand apart in the source and are kept apart here. Some results are limits rather than exact numbers.

For one data set, the system named is Influenza virus B/Lee/40. Description: Cytopathic effect reduction, influenza B Lee in MDCK cells, MTT. Conditions: for Selectivity index FluB Lee: CC50/EC50; for EC50: read-out: Anti-Flu activity EC50 FluB Lee. It is filed as cell-based. On the technique in general: Protection from cytopathic effect is a common read-out in antiviral testing.
In the next data set the test system is MERS-CoV. The data set is described as follows: microbe, parasite or virus in culture. It is filed as cell-based, MERS virus (MERS-CoV/KOR/KNIH/002_05_2015). As to conditions: Middle East respiratory syndrome-related coronavirus, Huh-7, 72 h, read-out: EC50 MERS-CoV.
For another data set, the system named is DENV. Description: Reduction in viral infection, dengue virus in Vero cells, immunofluorescence (4G2 antibody). It is filed as cell-based, Dengue virus New Guinea C (NGC). Conditions: 72 h, read-out: EC50 DENV.
In the next data set the test system is ZIKV. Description: Reduction in viral infection, zika virus in Vero cells, immunofluorescence (4G2 antibody). Conditions: 72 h, day 3 after infection. It is filed as cell-based, Zikavirus (MR766).
Another data set has as its system CHIKV. Description: Cytopathic effect reduction, Chikungunya virus in Vero cells, MTT. It is filed as cell-based. Conditions: 72 h, read-out: EC50 CHIKV.
Data set [1] can be described thus: in vitro. As to conditions: dog.
Data set [2] in a line: in vitro. Conditions: human.
A short description of data set [3]: Cytotoxicity (CC50) in Vero cells. As to conditions: African green monkey.
The next data set has as its system MDCK cells. Conditions: read-out: Toxicity CC50, day 3, MTT.
Another data set has as its system hCoV (229E). Description: microbe, parasite or virus in culture. It is filed as cell-based, Human coronavirus hCoV 229E. As to conditions: MRC5, 72 h, read-out: EC50 hCoV (229E).
The next data set concerns hCoV (OC43). Description: Cytopathic effect reduction, hCoV OC43 in MRC-5 cells, MTT. It is filed as cell-based, Human coronavirus hCoV OC43. As to conditions: Betacoronavirus 1, OC43, MRC5, 72 h, read-out: EC50 hCoV (OC43).
The test system of another data set is FIPV. Description: Cytopathic effect reduction, FIPV in CRFK cells, MTT. Conditions: read-out: EC50 FIPV. It is filed as cell-based, feline infectious peritonitis virus (FIPV).
For the next data set, the system named is MRC-5 cells. Conditions: human.
Data set [4] in a line: in vitro. Conditions: human. This is another data set of the same source.
Data set [5] can be described thus: in vitro. Conditions: cat.
The test system of data set [6] is Madin-Darby Canine Kidney (MDCK) cells. As to conditions: 100 μM for 3 days; cited from earlier work.
[7] abbreviates: CC50 (CHIKV), Vero cells, CHIKV test, MTT.
Where [8] appears, read: CC50 (DENV), Vero cells, DENV test.

On to `O=C(Nc1ccn(C2O[C@H](CO)[C@@H](O)[C@H]2F)c(=O)n1)c1cccc(-c2ccccc2)n1` (stereo in doubt) [Example 27, N-(1-((2S,3R,4R,5R)-3-fluoro-4-hydroxy-5-(hydroxymethyl)tetrahydrofuran-2-yl)-2-oxo-1,2-dihydropyrimidin-4-yl)-6-phenylpicolinamide], for which, in the data set with Influenza virus B/Lee/40, the “Selectivity index FluB Lee” value is on record as greater than 6.4. Besides, the EC50 in the data set with Influenza virus B/Lee/40 (MDCK, 72 h) was 15.6 µM; in the data set with MERS-CoV, 20.9 µM; in the data set on DENV, 13.7 µM; in the data set on ZIKV it was greater than 100 µM; in the data set with CHIKV it was greater than 100 µM. The CC50 at 3 days in “in vitro [1]” was greater than 100 µM; in the data set “in vitro [2]”, 56.6 µM; in data set [3] (setting [7]), greater than 100 µM; in [3] (setting [8]), 64.4 µM; in data set [3] (CC50, Vero cells, ZIKV test), greater than 100 µM.
As to `Cc1nccc(C(=O)Nc2ccn(C3O[C@H](CO)[C@@H](O)[C@H]3F)c(=O)n2)n1` (stereo in doubt) [Example 29, N-(1-((2S,3R,4R,5R)-3-fluoro-4-hydroxy-5-(hydroxymethyl)tetrahydrofuran-2-yl)-2-oxo-1,2-dihydropyrimidin-4-yl)-2-methylpyrimidin-4-carboxamide], in the data set on Influenza virus B/Lee/40, the “Selectivity index FluB Lee” value is listed as greater than 17.9. Besides, the half-maximal effective concentration (EC50) in the data set on Influenza virus B/Lee/40 (MDCK, 72 h) was 5.6 µM; in the data set with MERS-CoV, greater than 100 µM; with DENV, greater than 100 µM; in the data set on ZIKV, greater than 100 µM; in the data set on CHIKV, 24 µM. Moreover, the CC50 at 3 days in the data set “in vitro [1]” was greater than 100 µM; in the data set “in vitro [2]”, greater than 100 µM; in [3] (setting [7]), greater than 100 µM; in [3] (setting [8]) it was greater than 100 µM; in data set [3] (CC50, Vero cells, ZIKV test), greater than 100 µM.
With `O=C(Nc1ccn(C2O[C@H](CO)[C@@H](O)[C@H]2F)c(=O)n1)c1ccc([N+](=O)[O-])cn1` (stereo in doubt) [Example 30, N-(1-((2S,3R,4R,5R)-3-fluoro-4-hydroxy-5-(hydroxymethyl)tetrahydrofuran-2-yl)-2-oxo-1,2-dihydropyrimidin-4-yl)-5-nitropicolinamide], the “Selectivity index FluB Lee” value with Influenza virus B/Lee/40 is recorded as greater than 15.4. Also, the concentration for a half-maximal effect (EC50) in the data set with Influenza virus B/Lee/40 (MDCK, 72 h) was 6.5 µM; in the data set with MERS-CoV it was greater than 100 µM; in the data set with DENV, 77.9 µM; in the data set on ZIKV, greater than 100 µM; in the data set on CHIKV, 62.5 µM. Also, the CC50 at 3 days in “in vitro [1]” was greater than 100 µM; in the data set “in vitro [2]”, greater than 100 µM; in [3] (setting [7]), greater than 100 µM; in data set [3] (setting [8]), greater than 100 µM; in [3] (CC50, Vero cells, ZIKV test), greater than 100 µM.
With `Nc1ccc(C(=O)Nc2ccn(C3O[C@H](CO)[C@@H](O)[C@H]3F)c(=O)n2)nc1` (stereo in doubt) [Example 31, 5-Amino-N-(1-((2S,3R,4R,5R)-3-fluoro-4-hydroxy-5-(hydroxymethyl)tetrahydrofuran-2-yl)-2-oxo-1,2-dihydropyrimidin-4-yl)picolinamide], the concentration for a half-maximal effect (EC50) is greater than 100 µM in the data set with MERS-CoV, greater than 100 µM in the data set with DENV and 57.6 µM in the data set with ZIKV. The CC50 at 3 days in the data set “in vitro [2]” is greater than 100 µM; in [3] (setting [8]), greater than 100 µM; in [3] (CC50, Vero cells, ZIKV test) it was greater than 100 µM.
For the compound `O=C(Nc1ccn(C2O[C@H](CO)[C@@H](O)[C@H]2F)c(=O)n1)c1cccnn1` (stereo in doubt) [Example 33, N-(1-((2S,3R,4R,5R)-3-fluoro-4-hydroxy-5-(hydroxymethyl)tetrahydrofuran-2-yl)-2-oxo-1,2-dihydropyrimidin-4-yl)pyridazine-3-carboxamide], in the data set on Influenza virus B/Lee/40, the “Selectivity index FluB Lee” value is greater than 12.8. Besides, the EC50 in the data set with Influenza virus B/Lee/40 (MDCK, 72 h) is 7.8 µM; with MERS-CoV, greater than 100 µM; in the data set on DENV, greater than 100 µM; with ZIKV it was greater than 100 µM; in the data set with CHIKV, 86.4 µM. The CC50 at 3 days is greater than 100 µM in the data set “in vitro [1]”; greater than 100 µM in “in vitro [2]”; greater than 100 µM in data set [3] (setting [7]); greater than 100 µM in data set [3] (setting [8]); greater than 100 µM in [3] (CC50, Vero cells, ZIKV test).
Consider `O=C(Nc1ccn(C2O[C@H](CO)[C@@H](O)[C@H]2F)c(=O)n1)c1ccncn1` (stereo in doubt) [Example 36, N-(1-((2S,3R,4R,5R)-3-fluoro-4-hydroxy-5-(hydroxymethyl)tetrahydrofuran-2-yl)-2-oxo-1,2-dihydropyrimidin-4-yl)pyrimidine-4-carboxamide], for which the “Selectivity index FluB Lee” value in the data set with Influenza virus B/Lee/40 is greater than 8.8. For the same compound, the concentration for a half-maximal effect (EC50) in the data set with Influenza virus B/Lee/40 (MDCK, 72 h) was 11.4 µM; with MERS-CoV it was greater than 100 µM; with DENV, greater than 100 µM; in the data set on ZIKV, greater than 100 µM; in the data set with CHIKV it was 57.7 µM. Also, the CC50 at 3 days was greater than 100 µM in the data set “in vitro [1]”; greater than 100 µM in “in vitro [2]”; greater than 100 µM in data set [3] (setting [7]); greater than 100 µM in data set [3] (setting [8]); greater than 100 µM in [3] (CC50, Vero cells, ZIKV test).
Turning to `N#Cc1ccc(C(=O)Nc2ccn(C3O[C@H](CO)[C@@H](O)[C@H]3F)c(=O)n2)nc1` (stereo in doubt) [Example 37, 5-cyano-N-(1-((2S,3R,4R,5R)-3-fluoro-4-hydroxy-5-(hydroxymethyl)tetrahydrofuran-2-yl)-2-oxo-1,2-dihydropyrimidin-4-yl)picolinamide], the “Selectivity index FluB Lee” value with Influenza virus B/Lee/40 is greater than 6.6. In addition, the 50% effective concentration (EC50) was 15.1 µM in the data set with Influenza virus B/Lee/40 (MDCK, 72 h); greater than 100 µM with MERS-CoV; greater than 100 µM in the data set on DENV; greater than 100 µM in the data set with ZIKV; 51.7 µM in the data set on CHIKV. Also, the CC50 at 3 days in the data set “in vitro [1]” is greater than 100 µM; in the data set “in vitro [2]”, greater than 100 µM; in data set [3] (setting [7]), greater than 100 µM; in data set [3] (setting [8]), greater than 100 µM; in data set [3] (CC50, Vero cells, ZIKV test) it was greater than 100 µM.
In the case of `Nc1ccn([C@@H]2O[C@H](CO)[C@@H](O)[C@H]2F)c(=O)n1` [2′-FdC, reference compound], in the data set on Influenza virus B/Lee/40, the 50% effective concentration (EC50) stood at 5.2 µM. Besides, in the data set on MDCK cells, the CC50 was greater than 100 µM.
As to `O=C(Nc1ccn([C@@H]2O[C@H](CO)[C@@H](O)C2(F)F)c(=O)n1)c1cccnn1` [Example 5, N-(1-((2R,4R,5R)-3,3-difluoro-4-hydroxy-5-(hydroxymethyl)tetrahydrofuran-2-yl)-2-oxo-1,2-dihydropyrimidin-4-yl)pyridazine-3-carboxamide], the “Selectivity index FluB Lee” value with Influenza virus B/Lee/40 is reported as greater than 142.9. The EC50 in the data set with Influenza virus B/Lee/40 (MDCK, 72 h) is 2.1 µM; in the data set on MERS-CoV, 1.4 µM; in the data set with hCoV (229E) it was 8.9 µM; in the data set on hCoV (OC43), 17.2 µM; in the data set on FIPV (Alphacoronavirus 1, CRFK, 72 h), 8.5 µM; in the data set with DENV, 0.94 µM. Further, the CC50 in the data set on MRC-5 cells, in the data set “in vitro [4]” and in the data set “in vitro [5]” was greater than 100 µM in each case. Besides, the CC50 at 3 days (in the data set “in vitro [1]”; in “in vitro [2]”; in data set [3] (setting [8])) was greater than 100 µM in each case.
Take `Nc1ccn([C@@H]2O[C@H](CO)[C@@H](O)C2(F)F)c(=O)n1` [Gemcitabine, reference compound]: the “Selectivity index FluB Lee” value in the data set with Influenza virus B/Lee/40 amounted to 185.2. In addition, the EC50 with Influenza virus B/Lee/40 (MDCK, 72 h) came to 1.3 µM; with MERS-CoV, 1.1 µM; with hCoV (229E) (MRC-5 cells, day 3 after infection) it was 0.44 µM; in the data set with FIPV (Alphacoronavirus 1, 72 h, CRFK cells, day 3 after infection) it was 21 µM. Also, in data set [6], the cell death entry is listed as “about 50%”. Moreover, the figures for the CC50 in “in vitro [1]”, in “in vitro [4]” and in “in vitro [5]” were 241 µM, greater than 100 µM and 92 µM, respectively. The compound further registered a CC50 at 3 days in the data set “in vitro [2]” greater than 100 µM.

Usually EC50 stands for the concentration giving half of the maximal effect.
